{"source": "patent US10975069B2", "about": "“Sigma-2 receptor ligand drug conjugates as antitumor compounds, methods of synthesis and uses thereof” (priority 2014, dated 2021)", "experiment": "Toxicity study (necropsy, CBC, clinical chemistry) in tumor bearing mice", "format": "in vivo, C57BL/6 mice", "details": "mouse, in vivo", "procedure": "Six adult female mice were submitted to necropsy. The strain designation of the mice was C57BL/6. […]\nAnimal studies were performed according to the animal studies protocol approved by Washington University Institutional Animal Care Facility. In vivo studies with mice were performed to compare the effects of SW V-49s, SV119. Erastin, a combination of SV119 with Erastin, and vehicle. […] C57BL/6 mice (6 weeks old. National Cancer Institute Laboratories) were injected in the right flank with 200 μL single cell suspension of KCKO cells in RPMI medium (25×10^4/10^5 cells per mouse). Mice were randomized into four groups (n=15). Treatment was started when the mean tumor diameter was ^˜5 mm. […] Erastin, equimolar mix of SV119 and Erastin. Tumors were measured every other day with a digital caliper. Several mice from different treatment groups were sent to the Division of Comparative Medicine in our institution for pathologic evaluation. Blood was collected for complete blood count (CBC) and biochemical analysis (AST, ALT, BUN, total bilirubin, and Cr). Organs were examined grossly and histologically."}
{"substance": "SW IV-134", "values": [{"measurement": "differences in laboratory values (biochemical analysis) versus vehicle", "value": "not statistically significant"}]}
